Experimental data reported in PMC4685510, “A Cell Biologist’s Field Guide to Aurora Kinase Inhibitors” (Frontiers in Oncology, 2015).

Legend:
Experiment in all cases: biochemical
Assay type in all cases: biochemical
[1] = biological target: T1, 363 human kinases (including Aurora A/B/C) (Homo sapiens, UniProt O14920); details: IKKb/IKBKB; for remaining activity at 0.1 µM: 100 nM; for remaining activity at 0.1 µM / remaining activity at 0.5 µM: read-out: % Enzyme Activity (relative to DMSO controls)
T1 sequence (O14920 1-756): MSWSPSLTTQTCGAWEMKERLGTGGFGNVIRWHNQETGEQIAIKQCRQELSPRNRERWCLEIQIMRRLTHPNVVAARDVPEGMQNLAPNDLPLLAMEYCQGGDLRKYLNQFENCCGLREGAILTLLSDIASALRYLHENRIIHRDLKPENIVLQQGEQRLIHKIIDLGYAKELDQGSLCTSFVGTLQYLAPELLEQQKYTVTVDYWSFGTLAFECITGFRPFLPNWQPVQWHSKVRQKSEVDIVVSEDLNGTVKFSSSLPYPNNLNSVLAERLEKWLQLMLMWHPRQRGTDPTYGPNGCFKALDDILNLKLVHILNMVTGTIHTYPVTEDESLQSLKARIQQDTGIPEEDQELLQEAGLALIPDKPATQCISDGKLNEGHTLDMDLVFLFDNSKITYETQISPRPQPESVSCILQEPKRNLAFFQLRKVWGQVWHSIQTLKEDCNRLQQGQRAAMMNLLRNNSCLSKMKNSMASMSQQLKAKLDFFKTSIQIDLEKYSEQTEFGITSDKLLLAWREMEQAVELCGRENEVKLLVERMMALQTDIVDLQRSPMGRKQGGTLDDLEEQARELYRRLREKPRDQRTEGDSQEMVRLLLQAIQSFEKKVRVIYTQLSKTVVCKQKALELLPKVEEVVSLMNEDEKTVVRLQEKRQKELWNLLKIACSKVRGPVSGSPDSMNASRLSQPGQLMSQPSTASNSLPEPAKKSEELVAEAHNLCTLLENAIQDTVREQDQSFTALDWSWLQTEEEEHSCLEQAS
Excerpt: (§1) However, the Aurora A/B selectivity ratios derived from our in vitro and in vivo data can be compared to prioritize inhibitors.

[2] = biological target: T2, 363 human kinases (including Aurora A/B/C) (Homo sapiens, UniProt O15264); details: P38d/MAPK13; for remaining activity at 0.1 µM: 100 nM; for remaining activity at 0.1 µM / remaining activity at 0.5 µM: read-out: % Enzyme Activity (relative to DMSO controls)
T2 sequence (O15264 1-365): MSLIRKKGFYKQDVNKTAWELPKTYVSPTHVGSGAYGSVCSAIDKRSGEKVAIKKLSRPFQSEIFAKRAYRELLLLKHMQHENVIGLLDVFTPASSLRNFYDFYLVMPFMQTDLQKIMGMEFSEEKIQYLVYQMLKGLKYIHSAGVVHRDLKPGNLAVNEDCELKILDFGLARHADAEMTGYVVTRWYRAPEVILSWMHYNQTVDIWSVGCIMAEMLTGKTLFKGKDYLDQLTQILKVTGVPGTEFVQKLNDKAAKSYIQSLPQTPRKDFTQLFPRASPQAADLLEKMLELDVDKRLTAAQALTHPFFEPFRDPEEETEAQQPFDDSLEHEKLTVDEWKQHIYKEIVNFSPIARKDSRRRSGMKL
Excerpt: as §1

[3] = biological target: 363 human kinases (including Aurora A/B/C) (Homo sapiens, UniProt P04626); details: ERBB2/HER2, [ATP] 20 µM; for remaining activity at 0.1 µM: 100 nM; for remaining activity at 0.1 µM / remaining activity at 0.5 µM: read-out: % Enzyme Activity (relative to DMSO controls)
363 human kinases (including Aurora A/B/C) (Homo sapiens, UniProt P04626), sequence (P04626 23-1255): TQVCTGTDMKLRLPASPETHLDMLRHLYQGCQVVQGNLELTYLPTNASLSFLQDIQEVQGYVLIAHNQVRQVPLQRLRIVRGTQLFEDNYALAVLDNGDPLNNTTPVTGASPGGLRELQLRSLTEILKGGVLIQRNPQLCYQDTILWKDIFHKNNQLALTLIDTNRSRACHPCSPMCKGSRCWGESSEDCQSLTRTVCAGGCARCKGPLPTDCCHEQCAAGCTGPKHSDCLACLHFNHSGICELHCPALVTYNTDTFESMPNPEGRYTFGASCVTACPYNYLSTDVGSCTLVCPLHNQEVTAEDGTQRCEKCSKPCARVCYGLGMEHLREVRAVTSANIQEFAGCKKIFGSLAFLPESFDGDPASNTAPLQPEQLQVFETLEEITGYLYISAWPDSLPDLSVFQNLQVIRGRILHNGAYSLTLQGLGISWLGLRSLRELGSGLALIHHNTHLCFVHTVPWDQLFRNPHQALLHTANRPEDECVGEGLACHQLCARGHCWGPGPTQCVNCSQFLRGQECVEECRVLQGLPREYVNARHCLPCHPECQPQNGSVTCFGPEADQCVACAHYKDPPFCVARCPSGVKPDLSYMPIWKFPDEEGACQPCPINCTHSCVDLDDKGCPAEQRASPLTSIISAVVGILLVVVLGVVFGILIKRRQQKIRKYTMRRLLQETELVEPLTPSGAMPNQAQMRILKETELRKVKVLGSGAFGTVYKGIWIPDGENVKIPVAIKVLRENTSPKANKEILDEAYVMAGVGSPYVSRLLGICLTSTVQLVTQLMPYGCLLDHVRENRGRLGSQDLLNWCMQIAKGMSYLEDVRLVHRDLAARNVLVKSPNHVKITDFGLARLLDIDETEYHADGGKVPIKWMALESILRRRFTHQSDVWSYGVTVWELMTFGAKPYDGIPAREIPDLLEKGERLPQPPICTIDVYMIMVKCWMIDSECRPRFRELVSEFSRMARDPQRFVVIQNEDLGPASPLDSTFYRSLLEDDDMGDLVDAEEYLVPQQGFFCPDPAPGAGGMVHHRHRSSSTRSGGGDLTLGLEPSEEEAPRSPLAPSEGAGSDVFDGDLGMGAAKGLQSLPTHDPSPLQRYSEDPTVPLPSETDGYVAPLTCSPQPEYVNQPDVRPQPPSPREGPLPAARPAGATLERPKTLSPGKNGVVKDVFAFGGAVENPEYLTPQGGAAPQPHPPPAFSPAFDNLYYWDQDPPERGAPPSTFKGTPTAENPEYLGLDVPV
Excerpt: as §1

[4] = biological target: 363 human kinases (including Aurora A/B/C) (Homo sapiens, UniProt P29597); details: TYK2; for remaining activity at 0.1 µM: 100 nM; for remaining activity at 0.1 µM / remaining activity at 0.5 µM: read-out: % Enzyme Activity (relative to DMSO controls)
363 human kinases (including Aurora A/B/C) (Homo sapiens, UniProt P29597), sequence (P29597 whole entry): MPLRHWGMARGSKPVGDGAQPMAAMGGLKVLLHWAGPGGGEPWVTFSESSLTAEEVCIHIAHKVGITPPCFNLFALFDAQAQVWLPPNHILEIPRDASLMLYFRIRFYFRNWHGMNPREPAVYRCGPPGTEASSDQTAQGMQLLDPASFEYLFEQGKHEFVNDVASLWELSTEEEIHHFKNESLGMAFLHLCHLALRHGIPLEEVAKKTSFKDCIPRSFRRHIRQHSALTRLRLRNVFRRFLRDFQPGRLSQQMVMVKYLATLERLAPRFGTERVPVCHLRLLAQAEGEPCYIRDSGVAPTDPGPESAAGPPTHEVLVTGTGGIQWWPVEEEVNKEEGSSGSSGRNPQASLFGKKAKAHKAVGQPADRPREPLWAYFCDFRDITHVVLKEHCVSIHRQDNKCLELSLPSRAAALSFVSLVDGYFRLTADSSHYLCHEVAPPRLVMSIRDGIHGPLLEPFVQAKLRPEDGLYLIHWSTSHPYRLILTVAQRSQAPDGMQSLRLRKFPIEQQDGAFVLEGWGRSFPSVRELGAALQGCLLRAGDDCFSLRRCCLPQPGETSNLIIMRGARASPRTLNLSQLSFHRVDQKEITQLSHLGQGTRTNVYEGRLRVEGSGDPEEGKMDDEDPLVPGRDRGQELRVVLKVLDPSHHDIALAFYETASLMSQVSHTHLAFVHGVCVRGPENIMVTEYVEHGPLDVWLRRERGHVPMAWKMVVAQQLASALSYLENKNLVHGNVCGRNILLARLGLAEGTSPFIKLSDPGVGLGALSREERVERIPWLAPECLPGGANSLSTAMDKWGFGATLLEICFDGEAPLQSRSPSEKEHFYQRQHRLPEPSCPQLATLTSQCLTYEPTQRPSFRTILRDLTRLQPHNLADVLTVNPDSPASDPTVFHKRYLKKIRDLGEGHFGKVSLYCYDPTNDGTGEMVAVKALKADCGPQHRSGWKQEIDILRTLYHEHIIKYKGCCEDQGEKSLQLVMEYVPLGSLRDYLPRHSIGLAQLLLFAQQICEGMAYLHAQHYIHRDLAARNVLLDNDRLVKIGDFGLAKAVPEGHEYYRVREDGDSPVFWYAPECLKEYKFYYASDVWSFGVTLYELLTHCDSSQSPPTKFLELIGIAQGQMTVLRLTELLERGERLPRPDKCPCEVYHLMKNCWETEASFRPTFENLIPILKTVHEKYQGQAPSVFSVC
Excerpt: as §1

[5] = biological target: 363 human kinases (including Aurora A/B/C) (Homo sapiens, UniProt P42685); details: FRK/PTK5; for remaining activity at 0.1 µM: 100 nM; for remaining activity at 0.1 µM / remaining activity at 0.5 µM: read-out: % Enzyme Activity (relative to DMSO controls)
363 human kinases (including Aurora A/B/C) (Homo sapiens, UniProt P42685), sequence (P42685 whole entry): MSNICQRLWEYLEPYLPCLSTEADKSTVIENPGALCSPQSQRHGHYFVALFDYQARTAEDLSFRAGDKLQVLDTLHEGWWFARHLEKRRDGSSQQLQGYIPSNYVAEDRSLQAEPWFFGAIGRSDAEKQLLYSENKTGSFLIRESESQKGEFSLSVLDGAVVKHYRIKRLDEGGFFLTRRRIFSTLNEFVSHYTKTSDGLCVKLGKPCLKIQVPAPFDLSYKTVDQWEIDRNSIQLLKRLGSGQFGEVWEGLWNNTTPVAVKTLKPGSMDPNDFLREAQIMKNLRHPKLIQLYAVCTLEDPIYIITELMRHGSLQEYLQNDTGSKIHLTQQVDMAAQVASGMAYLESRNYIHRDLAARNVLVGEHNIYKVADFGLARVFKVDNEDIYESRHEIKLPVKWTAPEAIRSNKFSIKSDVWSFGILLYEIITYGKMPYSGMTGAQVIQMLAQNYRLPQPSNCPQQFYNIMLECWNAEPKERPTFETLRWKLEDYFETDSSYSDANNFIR
Excerpt: as §1

[6] = biological target: 363 human kinases (including Aurora A/B/C) (Homo sapiens, UniProt Q14680); details: MELK; for remaining activity at 0.1 µM: 100 nM; for remaining activity at 0.1 µM / remaining activity at 0.5 µM: read-out: % Enzyme Activity (relative to DMSO controls)
363 human kinases (including Aurora A/B/C) (Homo sapiens, UniProt Q14680), sequence (Q14680 whole entry): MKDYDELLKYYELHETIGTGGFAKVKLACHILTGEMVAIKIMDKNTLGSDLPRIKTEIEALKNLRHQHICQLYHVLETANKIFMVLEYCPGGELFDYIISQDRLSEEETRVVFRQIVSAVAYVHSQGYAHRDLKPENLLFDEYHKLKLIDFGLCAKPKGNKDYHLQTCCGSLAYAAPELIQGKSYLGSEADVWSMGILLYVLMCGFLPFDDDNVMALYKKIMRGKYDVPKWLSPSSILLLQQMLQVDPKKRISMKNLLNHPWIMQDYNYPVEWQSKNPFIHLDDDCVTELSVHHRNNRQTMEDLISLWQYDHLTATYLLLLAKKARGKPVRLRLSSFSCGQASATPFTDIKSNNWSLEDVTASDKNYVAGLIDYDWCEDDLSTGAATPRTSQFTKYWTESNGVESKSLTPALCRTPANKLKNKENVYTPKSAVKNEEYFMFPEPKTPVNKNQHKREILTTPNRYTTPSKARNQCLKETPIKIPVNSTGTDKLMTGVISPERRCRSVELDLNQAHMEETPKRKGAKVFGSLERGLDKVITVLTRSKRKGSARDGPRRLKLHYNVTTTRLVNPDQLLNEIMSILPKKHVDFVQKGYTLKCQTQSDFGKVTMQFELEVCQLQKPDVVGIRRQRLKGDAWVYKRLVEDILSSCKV
Excerpt: as §1

[7] = biological target: 363 human kinases (including Aurora A/B/C) (Homo sapiens, UniProt Q16539); details: P38a/MAPK14; for remaining activity at 0.1 µM: 100 nM; for remaining activity at 0.1 µM / remaining activity at 0.5 µM: read-out: % Enzyme Activity (relative to DMSO controls)
363 human kinases (including Aurora A/B/C) (Homo sapiens, UniProt Q16539), sequence (Q16539 whole entry): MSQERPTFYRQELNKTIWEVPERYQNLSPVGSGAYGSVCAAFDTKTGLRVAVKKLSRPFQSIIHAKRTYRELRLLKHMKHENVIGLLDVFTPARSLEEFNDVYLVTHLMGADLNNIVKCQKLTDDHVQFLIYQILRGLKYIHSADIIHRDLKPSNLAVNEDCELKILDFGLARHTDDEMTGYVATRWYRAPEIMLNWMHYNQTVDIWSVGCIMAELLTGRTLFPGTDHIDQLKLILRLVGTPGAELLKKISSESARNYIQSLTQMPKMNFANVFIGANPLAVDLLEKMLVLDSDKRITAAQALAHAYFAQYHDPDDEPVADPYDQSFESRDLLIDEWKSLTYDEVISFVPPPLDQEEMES
Excerpt: as §1

[8] = biological target: T3, 363 human kinases (including Aurora A/B/C) (Homo sapiens, UniProt Q8IYT8); details: ULK2; for remaining activity at 0.1 µM: 100 nM; for remaining activity at 0.1 µM / remaining activity at 0.5 µM: read-out: % Enzyme Activity (relative to DMSO controls)
T3 sequence (Q8IYT8 1-1036): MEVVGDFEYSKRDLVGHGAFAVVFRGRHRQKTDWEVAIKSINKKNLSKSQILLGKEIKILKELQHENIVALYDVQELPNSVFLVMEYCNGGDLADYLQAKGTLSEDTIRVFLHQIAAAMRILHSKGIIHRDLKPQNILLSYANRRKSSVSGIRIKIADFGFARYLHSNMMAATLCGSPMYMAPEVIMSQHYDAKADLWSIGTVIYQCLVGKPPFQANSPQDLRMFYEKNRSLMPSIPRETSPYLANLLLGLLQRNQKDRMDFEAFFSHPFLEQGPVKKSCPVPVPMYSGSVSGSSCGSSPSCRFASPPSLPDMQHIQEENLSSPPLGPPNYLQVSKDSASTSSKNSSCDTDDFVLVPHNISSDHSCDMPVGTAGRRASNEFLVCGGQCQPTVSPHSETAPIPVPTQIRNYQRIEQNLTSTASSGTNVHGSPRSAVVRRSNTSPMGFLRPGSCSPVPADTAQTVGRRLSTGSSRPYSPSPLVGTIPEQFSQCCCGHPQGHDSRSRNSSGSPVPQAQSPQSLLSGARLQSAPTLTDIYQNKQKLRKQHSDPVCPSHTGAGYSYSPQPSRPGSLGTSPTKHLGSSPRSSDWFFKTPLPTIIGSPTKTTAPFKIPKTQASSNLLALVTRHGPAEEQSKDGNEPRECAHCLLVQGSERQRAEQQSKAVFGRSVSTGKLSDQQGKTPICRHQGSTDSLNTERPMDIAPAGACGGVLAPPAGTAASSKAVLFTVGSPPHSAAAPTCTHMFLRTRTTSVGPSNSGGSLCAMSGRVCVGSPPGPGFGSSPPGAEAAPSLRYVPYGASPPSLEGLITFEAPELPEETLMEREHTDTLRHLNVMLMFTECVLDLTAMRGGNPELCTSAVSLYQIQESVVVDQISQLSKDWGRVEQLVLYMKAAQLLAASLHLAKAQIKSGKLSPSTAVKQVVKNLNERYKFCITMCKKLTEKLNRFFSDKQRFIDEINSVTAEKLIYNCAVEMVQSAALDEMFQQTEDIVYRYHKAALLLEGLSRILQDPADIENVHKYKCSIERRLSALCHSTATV
Excerpt: as §1

SMILES	remaining activity at 0.1 µM [1]	remaining activity at 0.1 µM [2]	remaining activity at 0.1 µM [3]	remaining activity at 0.1 µM [4]	remaining activity at 0.1 µM [5]	remaining activity at 0.1 µM [6]	remaining activity at 0.1 µM [7]	remaining activity at 0.1 µM [8]	remaining activity at 0.5 µM ([1]; 500 nM)	remaining activity at 0.5 µM ([2]; 500 nM)	remaining activity at 0.5 µM ([3]; 500 nM)	remaining activity at 0.5 µM ([4]; 500 nM)	remaining activity at 0.5 µM ([5]; 500 nM)	remaining activity at 0.5 µM ([6]; 500 nM)	remaining activity at 0.5 µM ([7]; 500 nM)	remaining activity at 0.5 µM ([8]; 500 nM)	also measured
CCn1cc(-c2ccnc3[nH]c(-c4cccc(CN(C)C)c4)cc23)c(-c2ccc(NC(=O)N(C)C)cc2)n1 [GSK1070916]	126%	91.7%	103%	87%	99.9%	95.7%	93.6%	141%	–	–	–	–	–	–	–	–	–
O=C(O)[C@]1(Cc2cccc(Nc3nccs3)n2)CC[C@@H](Oc2cccc(Cl)c2F)CC1 [MK-5108]	103%	98.5%	100%	52.3%	41%	109%	95.2%	113%	128%	82.6%	111%	17%	19.8%	112%	101%	134%	–
O=C(c1cccc(Cl)c1F)N1CCN(Cc2cccc(Nc3nccs3)n2)CC1 [MK-8745]	–	–	–	–	–	–	–	–	119%	100%	99.8%	67.8%	98.1%	95.9%	95.3%	144%	% Enzyme Activity (relative to DMSO controls) ([1]; 500 nM): 112.10%; % Enzyme Activity (relative to DMSO controls) ([2]; 500 nM): 96.82%; % Enzyme Activity (relative to DMSO controls) ([3]; 500 nM): 99.40%; % Enzyme Activity (relative to DMSO controls) ([4]; 500 nM): 67.55%; % Enzyme Activity (relative to DMSO controls) ([5]; 500 nM): 94.09%; % Enzyme Activity (relative to DMSO controls) ([6]; 500 nM): 93.77%; % Enzyme Activity (relative to DMSO controls) ([7]; 500 nM): 95.14%; % Enzyme Activity (relative to DMSO controls) ([8]; 500 nM): 140.35%
